Where “and” joins values, the source holds several entries; their conditions need not be identical. Equal values may be shown once. Read-outs that look alike come from different tables or passages of the source.
Columns and labels:
[1] = test system: T. cruzi (Tulahuen strain); experiment: T. cruzi growth on monolayers of mouse 3T3 fibroblasts; format: cell-based, Trypanosoma cruzi
Procedure: (§1) Compounds which appear in Table 1, below were tested […] using the Tulahuen strain of T. cruzi. See Buckner, et al., Antimicrobial Agents and Chemotherapy, 40, 2592-2597 (1996). In this assay, trypomastigotes were grown on monolayers of mouse 3T3 fibroblasts as previously described by Van Voorhis, et al., J. Exp. Med. 169: 641-652 (1989). […] The assay also tested for inhibition of fibroblast growth (an indication of potential toxicity). In virtually all instances, the compounds were non-toxic in the assay. In Table 1, if a substituent is left blank, such a substituent is defined as a hydrogen. [drawing 5]

Candida spp. = experiment: Candida broth dilution assay; format: cell-based
Procedure: (§2) The compound JJ119 was tested for anti-Candida activity in a standard assay, as described below, against a number of strains of fungus. The assay compared inhibition (the effective dose causing 80% growth inhibition of the fungus) of several strains of Candida spp. using Fluconazole and compound JJ 119 (R^3 is CH3, all other variable substituents are H) of the present invention (see Table I, above).
(§3) The Candida assay followed the “Reference method for broth dilution antifungal susceptibility testing of yeasts; approved standard”, NCCLS, June, 1997. The procedure was modified to a 96 well format (as described in Modifications section 3.8). The methodology employed deviated from the approved method by reading results at 24 h rather than 48 h (since cultures of the ATCC strains were generally dense by 24 h).
(§4) In general, Candida were inoculated at a density of 2×10^3/ml in RPMI based medium in the presence of drugs at the following concentrations: 50 uM, 10 uM, 2 uM, 0.4 uM, and 0 uM. Cells were incubated at 34° C. for 24 hr and growth inhibition was scored visually for turbidity. All drugs were diluted in DMSO (except fluconazole which was diluted in water). Top concentration of DMSO in the cultures was 0.25%; DMSO alone at 0.5% was not inhibitory to C. albicans.

mouse 3T3 fibroblasts = experiment: inhibition of fibroblast growth (indication of potential toxicity); format: cell-based; details: inhibition of 3T3 fibroblast growth
Procedure: as §1

C. glabrata = experiment: Candida broth dilution assay, C. glabrata; format: cell-based; details: 80% growth inhibition, 24 h
Procedure: as §2, §3, §4

C. albicans = experiment: Candida broth dilution assay, C. albicans; format: cell-based; details: 80% growth inhibition, 24 h
Procedure: as §2, §3, §4

C. tropicalis = experiment: Candida broth dilution assay, C. tropicalis; format: cell-based; details: 80% growth inhibition, 24 h
Procedure: as §2, §3, §4

C. parapsilosis = experiment: Candida broth dilution assay, C. parapsilosis; format: cell-based; details: 80% growth inhibition, 24 h
Procedure: as §2, §3, §4

C. krusei = experiment: Candida broth dilution assay, C. krusei; format: cell-based; details: 80% growth inhibition, 24 h
Procedure: as §2, §3, §4

[2] = incubation in murine serum (ester hydrolysis); format: in vitro ADME, mouse; details: 30 minutes of incubation
Excerpt: The blood serum esterase levels of mice is very high, and it was thought that eliminating the ester group would increase the bioavailability of the aminobiphenyl over the ester.

[3] = test system: T. cruzi trypomastigotes (Tulahuen); experiment: anti-T. cruzi activity in infected mice; format: in vivo, mouse
Procedure: FIGS. 3A and B represent mouse data for compound JJ121. FIG. 3A represents Parasite levels and FIG. 3B represents Survival for treated and control mice. Mice were dosed orally at 50 mg/kg twice daily on days 1-10. They were infected with T. cruzi trypomastigotes (Tulahuen) 2×10^3 SQ at day 0. Parasitemia was quantified microscopically on a small drop of tail blood at 400×.
Despite this apparent stability, however, the results for anti-T. cruzi activity in infected mice is much better for JJ121 than for JJ37. […] All mice receiving JJ121 survive past 100 days, whereas the vehicle mice all die by day 20.

[4] = drug concentration giving 50% inhibition of T. cruzi growth on 3T3 fibroblasts, read-out: EC50 T. cruzi
[5] = read-out: activity against T. cruzi

| Compound | EC50 [1, 4] [µM] | EC50 (mouse 3T3 fibroblasts) [µM] | other results |
| --- | --- | --- | --- |
| COC(=O)c1ccc(NCc2cncn2Cc2ccccc2Br)cc1-c1ccccc1 [JJ102, o-Br-imid-BP-COOMe] | 0.1 |  |  |
| Clc1ccc(Cn2cncc2CNc2cccc(-c3ccccc3)c2)cc1 [JJ120, p-Cl-imid-BP] | 0.08 |  | anti-Candida activity (Candida spp.): exhibited activity |
| COC(=O)c1ccc(NCc2cncn2Cc2cccc([N+](=O)[O-])c2)cc1-c1ccccc1 [JJ81, m-NO2-imid-BP-COOMe] | 0.03 | > 10 |  |
| COC(=O)c1ccc(NCc2cncn2Cc2ccccc2Cl)cc1-c1ccccc1 [JJ117] |  | > 10 |  |
| COC(=O)c1ccc(NCc2cncn2Cc2ccc(C#N)cc2)cc1-c1ccccc1 [JJ20] |  | > 10 | EC50 [1, 5]: 0.04 µM |
| OC(Cn1cncn1)(Cn1cncn1)c1ccc(F)cc1F [Fluconazole] |  |  | ED80 (C. glabrata; C. glabrata strain 1): 104.5 μM and (32) μg/ml; ED80 (C. glabrata; C. glabrata strain 2): 6.528 μM and (2) μg/ml; ED80 (C. glabrata; C. glabrata strain 3): 208.9 μM and (64) μg/ml; ED80 (C. albicans; C. albicans strain 1): 6.53 µM |
| COC(=O)c1ccc(NCc2cncn2Cc2ccc(Cl)cc2)cc1-c1ccccc1 [JJ53, p-Cl-imid-BP-COOMe] | 0.005 | > 10 |  |
| O=[N+]([O-])c1ccc(Cn2cncc2CNc2cccc(-c3ccccc3)c2)cc1 [JJ118, p-NO2-imid-BP] | 0.1 |  |  |
| Cc1ccc(Cn2cncc2CNc2cccc(-c3ccccc3)c2)cc1 [JJ119, p-CH3-imid-BP] | 0.1 |  | ED80 (C. tropicalis; C. tropicalis strain 1): >100 µM; ED80 (C. tropicalis; C. tropicalis strain 2 (first line so named, r25)): >100 µM; ED80 (C. tropicalis; C. tropicalis strain 2 (second line so named, r27)): >100 µM; ED80 (C. parapsilosis; C. parapsilosis strain 1): 100 µM and 50 µM; ED80 (C. parapsilosis; C. parapsilosis strain 2): 25 µM and 12.5 µM; ED80 (C. glabrata; C. glabrata strain 1): 12.5 µM; ED80 (C. glabrata; C. glabrata strain 2): 6.25 µM; ED80 (C. glabrata; C. glabrata strain 3): 25 µM; anti-Candida activity (Candida spp.): favorable anti-Candida activity; ED80 (C. albicans; C. albicans strain 1): 12.5 µM; ED80 (C. albicans; C. albicans strain 2): 12.5 µM; ED80 (C. albicans; C. albicans strain 3): 6.25 µM; ED80 (C. krusei; C. krusei strain 1): 25 µM; ED80 (C. krusei; C. krusei strain 2): 50 µM; ED80 (C. krusei; C. krusei strain 3): 25 µM |
| CC(C)OC(=O)c1ccc(NCc2cncn2Cc2ccc(-c3ccccc3)cc2)cc1-c1ccccc1 [JJ129] | 0.05 | > 10 |  |
| COC(=O)c1ccc(NCc2cncn2Cc2ccc(N)cc2)cc1-c1ccccc1 [JJ58, p-NH2-imid-BP-COOMe] | 0.25 | > 10 |  |
| COC(=O)c1ccc(NCc2cncn2Cc2cccc(Br)c2)cc1-c1ccccc1 [JJ85, m-Br-imid-BP-COOMe] | 0.02 | > 10 |  |
| COC(=O)c1ccc(NCc2cncn2Cc2ccc(-c3ccccc3)cc2)cc1-c1ccccc1 [JJ37] |  | > 10 | EC50 ([1]; read-out: activity against T. cruzi amastigotes): 0.0005 µM; species found after incubation in murine serum [2]: the ester is the only species; activity in mouse models ([3]; infected mice): shows activity in mouse models, but much less than that of JJ121 |
| COC(=O)c1ccc(NCc2cncn2Cc2cccc(C)c2)cc1-c1ccccc1 [JJ82, m-CH3-imid-BP-COOMe] | 0.02 | > 10 |  |
| CCOC(=O)c1ccc(NCc2cncn2Cc2ccc(-c3ccccc3)cc2)cc1-c1ccccc1 [JJ128] | 0.01 | > 10 |  |
| COC(=O)c1ccc(NCc2cncn2Cc2ccc(C)cc2)cc1-c1ccccc1 [JJ52, p-CH3-imid-BP-COOMe] | 0.005 | > 10 |  |

| Compound | EC50 [1, 4] [µM] | EC50 (mouse 3T3 fibroblasts) [µM] | other results |
| --- | --- | --- | --- |
| c1ccc(-c2ccc(Cn3cncc3CNc3ccc(-c4noc5ccccc45)c(-c4ccccc4)c3)cc2)cc1 [JJ141] | 0.01 | > 10 |  |
| COC(=O)c1ccc(NCc2cncn2Cc2ccccc2C)cc1-c1ccccc1 [JJ101, o-CH3-imid-BP-COOMe] | 1 |  |  |
| N#Cc1ccc(Cn2cncc2CNc2ccc(C(=O)O)c(-c3ccccc3)c2)cc1 [JJ28] |  | > 10 | EC50 [1, 5]: 1 µM |
| O=C(OC1CCCCC1)c1ccc(NCc2cncn2Cc2ccc(-c3ccccc3)cc2)cc1-c1ccccc1 [JJ130] | 0.01 | > 10 |  |
| COC(=O)c1ccc(NCc2cncn2Cc2cccc(N)c2)cc1-c1ccccc1 [JJ83, m-NH2-imid-BP-COOMe] | 0.13 | > 10 |  |
| COC(=O)c1ccc(NCc2cncn2Cc2ccc([N+](=O)[O-])cc2)cc1-c1ccccc1 [JJ51, p-NO2-imid-BP-COOMe] | 0.1 | > 10 |  |
| COC(=O)c1ccc(NCc2cncn2Cc2ccccc2)cc1-c1ccccc1 [JJ21] | 0.08 | > 10 |  |
| COC(=O)c1ccc(NCc2cncn2Cc2ccc(Br)cc2)cc1-c1ccccc1 [JJ57, p-Br-imid-BP-COOMe] | 0.02 | > 10 |  |
| c1ccc(-c2ccc(Cn3cncc3CNc3cccc(-c4ccccc4)c3)cc2)cc1 [JJ121, p-Ph-imid-BP] | 0.01 |  | reduced activity compared with JJ37 [1]: 20 fold; IC50 ([1]; T. cruzi): 0.01 µM; survival ([3]; mice, oral 50 mg/kg twice daily on days 1-10, vehicle mice all die by day 20): > 100 days; parasite level in mouse blood ([3]; mice, oral 50 mg/kg twice daily, within 45 days): dramatic suppression of parasite from mouse blood |
| c1ccc(-c2ccc(Cn3cncc3CNc3ccc(-c4cc5ccccc5o4)c(-c4ccccc4)c3)cc2)cc1 [JJ138] | 0.1 | > 10 |  |
| COC(=O)c1ccc(NCc2cncn2Cc2cccc(C(F)(F)F)c2)cc1-c1ccccc1 [JJ104] | 0.04 | > 10 |  |
| COC(=O)c1ccc(NCc2cncn2Cc2ccccc2C#N)cc1-c1ccccc1 [JJ103, o-CN-imid-BP-COOMe] | 0.2 | > 10 |  |
| COC(=O)c1ccc(NCc2cncn2Cc2cccc(C#N)c2)cc1-c1ccccc1 [JJ97, m-CN-imid-BP-COOMe] | 0.1 | > 10 |  |
| N#Cc1ccc(Cn2cncc2CNc2cccc(-c3ccccc3)c2)cc1 [JJ73] | 0.05 |  |  |
| COC(=O)c1ccc(NCc2cncn2Cc2ccccc2N)cc1-c1ccccc1 [JJ105, o-NH2-imid-BP-COOMe] | 0.005 | > 10 |  |
| COC(=O)c1ccc(NCc2cncn2Cc2cccc(Cl)c2)cc1-c1ccccc1 [JJ84, m-Cl-imid-BP-COOMe] | 0.02 | > 10 |  |

— patent US20060167269A1, “Compounds and methods for the inhibition of compounds cruzi” (priority 2001, published 2006)
